Experimental data: US20230317203A1, “SCREENING METHOD” (University of Leeds, priority 2022, published 2023)

Columns and labels:
BRISC BRCC36 Thr128Pro = BRISC BRCC36 Thr128Pro (Homo sapiens, UniProt P46736+Q15018+Q9NXR7, T128P); experiment: Mass photometry, BRISC mutant BRCC36 Thr128Pro; assay type: binding; details: BRCC36 Thr128Pro (inactive mutant)
Description: Microscope coverslips were prepared as previously described^33. All mass photometry experiments were performed using a One^MP mass photometer (Refeyn Ltd, Oxford, UK). For preliminary BRISC-inhibitor measurements, 1 μM BRISC(FL) was mixed with either DMSO or inhibitor at 330 μM and incubated for 15 minutes on ice. Prior to MP measurement, the BRISC-inhibitor mix was diluted in gel filtration buffer (25 mM HEPES, 150 mM NaCl, 1 mM TCEP) for a final concentration of BRISC at 10 nM (0.05% DMSO). 12 μL of this dilution was used for the final MP measurement, following autofocus stabilisation. […] Movies were recorded for 60 seconds using AcquireMP (Refeyn, UK), and were processed using DiscoverMP (Refeyn, UK). […] The relative amount of each species is calculated as the area of each Gaussian, where a refers to the standard deviation of the fitted Gaussian. […] Curves were fitted and EC50 values were calculated using the GraphPad Prism (v8.0) built-in dose-response equation for concentration of agonist vs. response (variable slope).
The cryo-EM structures of BRISC bound to molecular glues allowed picking of selective mutations to probe the BRISC-compound interaction site and to assess the contribution of each interacting residue for inhibition and gluing activity. […] For the remaining active 13 mutants (FIGS. 11C, 11D) inhibitor IC50s were calculated against BRISC DUB activity. […]

BRISC BRCC36 Trp130Ala = BRISC BRCC36 Trp130Ala (Homo sapiens, UniProt P46736+Q15018+Q9NXR7, W130A); experiment: IQF DUB assay, BRISC mutant BRCC36 Trp130Ala; assay type: biochemical; details: FIG. 4B
Description: (§1) The four-subunit human BRISC (full-length (FL) and MERIT40ΔN, Abraxas2ΔC) complex was cloned using the MultiBac system and co-expressed in Spodoptera frugiperda (Sf9) insect cells^32. BRISC mutants were cloned into pFastBac vectors in the Bac-to-Bac system (ThermoFisher), baculoviruses generated in Sf9 cells and used for co-infection of Trichoplusia ni (Tni) cells. All BRISC complexes were purified as previously described^12,13.
(§2) BRISC complexes were tested for activity in DUB reaction buffer containing 50 mM HEPES-NaOH pH 7.0, 100 mM NaCl, 0.1 mg/mL BSA, 1 mM DTT, and 0.003% Brij-35. […] Inhibitors were assayed at concentrations up to 200 μM. […] DUB activity was measured using internally quenched fluorescent (IQF) K63-linked diUb (Lifesensors, catalogue number: DU6303) at 50 or 100 nM. Cleaved diUb was monitored by measuring fluorescence intensity (Ex. 540 nm, Em. 580 nm; dichroic mirror 560 nm). Fluorescence intensity was measured every minute for 30 minutes at 30° C. Fluorescence intensity units for the first 10 minutes were plotted against time to generate a linear reaction progress curve, where the initial velocity (v0) corresponds to the gradient of the curve. IC50 values were calculated using the GraphPad Prism (v8.0) built-in dose-response equation for inhibitor concentration vs. response (variable slope). […]

BRISC Abraxas2 Thr135Lys = BRISC Abraxas2 Thr135Lys (Homo sapiens, UniProt P46736+Q15018+Q9NXR7, T135K); experiment: IQF DUB assay, BRISC mutant Abraxas2 Thr135Lys; assay type: biochemical; details: FIG. 4B
Description: as §1, §2

BRISC [1] = experiment: Mass photometry of BRISC oligomeric state; assay type: binding, human; details: mass photometry
Description: (§3) Microscope coverslips were prepared as previously described^33. All mass photometry experiments were performed using a One^MP mass photometer (Refeyn Ltd, Oxford, UK). For preliminary BRISC-inhibitor measurements, 1 μM BRISC(FL) was mixed with either DMSO or inhibitor at 330 μM and incubated for 15 minutes on ice. Prior to MP measurement, the BRISC-inhibitor mix was diluted in gel filtration buffer (25 mM HEPES, 150 mM NaCl, 1 mM TCEP) for a final concentration of BRISC at 10 nM (0.05% DMSO). 12 μL of this dilution was used for the final MP measurement, following autofocus stabilisation. […] The BRISC-inhibitor mix was used directly for MP measurement using buffer-free autofocus stabilisation. Movies were recorded for 60 seconds using AcquireMP (Refeyn, UK), and were processed using DiscoverMP (Refeyn, UK). Mass photometry image processing has been previously described^33. Briefly, contrast-to-mass (C2M) calibration was performed using protein standards (66-669 kDa) diluted in gel filtration buffer. […] The mass distribution from each run is in a histogram, where count refers to each landing event and a Gaussian sum is fitted to the data. The relative amount of each species is calculated as the area of each Gaussian, where a refers to the standard deviation of the fitted Gaussian. […] Curves were fitted and EC50 values were calculated using the GraphPad Prism (v8.0) built-in dose-response equation for concentration of agonist vs. response (variable slope).

BRISC [2] = biological target: BRISC (Homo sapiens, UniProt P46736+Q15018+Q9NXR7); experiment: Mass photometry of BRISC oligomeric state; assay type: binding; details: purified BRISC mixed with inhibitor, FIG. 2B
Description: as §3

inhibitor-induced dimerisation (BRISC BRCC36 Thr128Pro): still formed a dimer
inhibitor sensitivity of mutant (BRISC BRCC36 Trp130Ala): severely affected
inhibitor sensitivity of mutant (BRISC Abraxas2 Thr135Lys): no effect on inhibitor sensitivity
mass photometry counts, 1:1:1:1 complex (BRISC [2]): 13%
mass photometry counts, dimer (BRISC [2]): 52%
Compound: O=C(NC1C2CNCC21)c1nn(C(=O)c2c(Cl)cccc2Cl)cc1NC(=O)c1c(Cl)cccc1Cl (stereo not drawn) [FX-171-C]
dimer formation at increasing inhibitor concentration (BRISC [1]): dose-dependent increase in dimer formation
